Measured values: the supplement of paper PMC10307832

How the values were obtained:
Experiment in all cases: relative viability (nuclei count vs DMSO), 5 days (fraction); higher = more cells survive
[1] = compound: CN(C)CC1=CC(=CC=C1)N=C(C2=CC=CC=C2)C3=C(NC4=C3C=CC(=C4)C(=O)N(C)C)O + CCNC(=O)c1noc(-c2cc(C(C)C)c(O)cc2O)c1-c1ccc(CN2CCOCC2)cc1 [Luminespib] (partner 0.01 µM)
How it was run: (§1)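 The day after seeding in 1536-well plates, lung cancer cell lines were treated by pin tool with a single drug, or with a fixed anchor-drug dose together with five library-drug doses (not always all listed) in √10 steps. After 5 days, a combined fix-and-stain solution (final 0.05% Triton X-100, 1% formaldehyde, 1 ug/ml Hoechst) was added. Nuclei counted on 4× images gave relative viability as treated counts over vehicle counts, reported as the median of duplicate plates.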

[2] = compound: CN(C)CC1=CC(=CC=C1)N=C(C2=CC=CC=C2)C3=C(NC4=C3C=CC(=C4)C(=O)N(C)C)O + COc1cc2c(Oc3ccc(NC(=O)C4(C(=O)Nc5ccc(F)cc5)CC4)cc3F)ccnc2cc1OCCCN1CCOCC1 [Foretinib] (partner 0.25 µM)
How it was run: as §1

[3] = compound: CN(C)CC1=CC(=CC=C1)N=C(C2=CC=CC=C2)C3=C(NC4=C3C=CC(=C4)C(=O)N(C)C)O + Cc1cc(Nc2cc(N3CCN(C)CC3)nc(Sc3ccc(NC(=O)C4CC4)cc3)n2)n[nH]1 [Tozasertib] (partner 0.1 µM)
How it was run: as §1

[4] = compound: CN(C)CC1=CC(=CC=C1)N=C(C2=CC=CC=C2)C3=C(NC4=C3C=CC(=C4)C(=O)N(C)C)O + NC(=O)Nc1cc(-c2cccc(F)c2)sc1C(=O)N[C@H]1CCCNC1 [AZD7762] (partner 0.2 µM)
How it was run: as §1

Cell Line	relative viability ([1]; first compound 0.08 µM)	relative viability ([1]; first compound 0.253 µM)	relative viability ([1]; first compound 0.8 µM)	relative viability ([1]; first compound 2.53 µM)	relative viability ([1]; first compound 8 µM)	relative viability ([2]; first compound 0.08 µM)	relative viability ([2]; first compound 0.253 µM)	relative viability ([2]; first compound 0.8 µM)	relative viability ([2]; first compound 2.53 µM)	relative viability ([2]; first compound 8 µM)	relative viability ([3]; first compound 0.08 µM)	relative viability ([3]; first compound 0.253 µM)	relative viability ([3]; first compound 0.8 µM)	relative viability ([3]; first compound 2.53 µM)	relative viability ([3]; first compound 8 µM)	relative viability ([4]; first compound 0.08 µM)	relative viability ([4]; first compound 0.253 µM)	relative viability ([4]; first compound 0.8 µM)	relative viability ([4]; first compound 2.53 µM)	relative viability ([4]; first compound 8 µM)
LK-2	0.229	0.164	0.188	0.183	0.138	1.15	1.16	1.27	1.15	1.17	0.162	0.165	0.171	0.188	0.198	0.457	0.416	0.426	0.493	0.341
LOU-NH91	0.308	0.32	0.358	0.337	0.322	0.931	0.882	0.732	0.917	0.936	0.68	0.673	0.54	0.642	0.629	0.762	0.801	0.713	0.719	0.703
LU99A	0.238	0.246	0.285	0.258	0.234	0.787	0.842	0.926	0.809	0.781	0.312	0.3	0.384	0.22	0.198	0.45	0.335	0.337	0.24	0.299
LXF-289	0.694	0.675	0.6	0.652	0.623	0.966	0.9	1.03	0.93	0.929	0.174	0.19	0.137	0.159	0.197	1.12	1.05	1.11	0.894	1.08
NCI-H23	0.21	0.203	0.196	0.242	0.243	1.1	1.1	0.622	1.18	0.81	0.355	0.454	0.413	0.411	0.366		0.243	0.255	0.324	0.319
NCI-H322M	0.808	0.864	0.62	0.707	0.532	0.887	1.02	0.831	0.831	0.666	0.432	0.42	0.407	0.449	0.317	0.53	0.599	0.53	0.448	0.588
NCI-H358	0.304	0.277	0.331	0.414	0.276	0.696	0.808	0.515	0.585	0.506	0.105	0.0937	0.0915	0.096	0.116	0.635	0.463	0.419	0.471	0.485
NCI-H441	0.303	0.304	0.364	0.381	0.354	1.11	1.01	1.24	1.17	0.873	0.625	0.603	0.67	0.634	0.588	1.19	1.06	1	1.2	1.06
NCI-H460	0.0333	0.0284	0.0254	0.0282	0.0318	0.995	1.07	0.994	0.928	1.04	0.292	0.574	0.62	0.426	0.397	0.667	0.511	0.636		0.664
NCI-H596	0.974	1.24	0.993	1.14	0.551	0.593	0.971	0.845	0.883	0.807	0.898	0.851	0.826	0.847	0.906	1.22	1.29	0.979	1.06	0.987
NCI-H647	0.103	0.133	0.227	0.199	0.184	1.26	1.1	1.12	1.15	1	0.262	0.362	0.263	0.356	0.235	0.513	0.483	0.463	0.48	0.445
NCI-H650	0.843	0.777	0.872	0.667	0.861	1.16	1.08	0.988	0.846	1.07	0.815	0.754	0.683	0.718	0.663	1.4	0.938	1.16	0.897	0.855
NCI-H727	0.245	0.377	0.296	0.543	0.354	0.896	0.877	0.804	0.942	0.664	0.361	0.721	0.608	0.647	0.486		0.546	0.577	0.867	0.583
NCI-H838	0.386	0.355	0.254	0.331	0.341	1.13	0.969	1	0.888	0.938	0.276	0.27	0.274	0.264	0.268	0.951	0.928	0.948	0.831	0.903
NCI-H1355	0.687	0.713	0.735	0.764	0.66	0.684	1.05	0.922	0.919	1.02	0.551	0.616	0.414	0.539	0.428	0.869	0.665	0.597	0.541	0.641
NCI-H1395	0.594	0.778	0.672	0.653	0.86	0.97	1.01	1.04	0.854	0.92	0.85	0.831	0.789	0.746	0.771	0.406	0.343	0.446	0.39	0.42
